Test results from patent US8178505B2, “Method of predicting and reducing risk of metastasis of breast cancer to lung” (Sloan-Kettering Institute for Cancer Research, priority 2005, dated 2012).

Assays:
LM2 cells = test: Lung metastasis formation after tail vein injection of LM2 cells, pharmacological targeting, bioluminescence imaging; type: in vivo, Balb/c nude mice; settings: preliminary results; drugs individually or in combination; FIGS. 2A and 2B
Description: Animal studies. All animal work was done in accordance with an IACUC approved protocol. Four to 6-week-old Balb/c nude mice (NCI) were used for all xenografting studies. For lung metastasis formation, 2×10^5 viable cells were washed and harvested in PBS and subsequently injected into the lateral tail vein in a volume of 0.1 mL. Endpoint assays were conducted at 15 weeks post-injection unless significant morbidity required that the mouse be sacrificed earlier. […] Mice were imaged for luciferase activity immediately after injection to exclude any that were not successfully xenografted.
Bioluminescent imaging and analysis. Mice were anesthetized and retro-orbitally injected with 1.5 mg of D-luciferin (15 mg/mL in PBS). Imaging was completed between 2-5 minutes post-injection using a Xenogen IVIS system coupled to Living Image acquisition and analysis software (Xenogen). For BLI plots, photon flux was calculated for each mouse using a rectangular region of interest (ROI) encompassing the thorax of the mouse in a prone position.

MMP-1, 3, 9, 10 and 11 = settings: cited from earlier work
malignant cell lines = settings: in culture; cited from earlier work

Structure (SMILES) | preventing lung metastasis (LM2 cells) | production of MMP-1, 3, 9, 10 and 11 (MMP-1, 3, 9, 10 and 11; by inhibiting PKC) | direct effect on activity of MMPs (MMP-1, 3, 9, 10 and 11) | differentiation and growth of malignant cell lines (malignant cell lines)
CNC(=O)[C@H](Cc1c[nH]c2ccccc12)NC(=O)[C@@H](CC(=O)NO)CC(C)C [GM-6001, Ilomastat] | findings similar to those obtained using genetic knockdowns |  |  | 
CCC/C=C/C=C/C(=O)O[C@H]1/C(=C/C(=O)OC)C[C@H]2C[C@H]([C@@H](C)O)OC(=O)C[C@H](O)C[C@@H]3C[C@H](OC(C)=O)C(C)(C)[C@](O)(C[C@@H]4C/C(=C/C(=O)OC)C[C@H](/C=C/C(C)(C)[C@]1(O)O2)O4)O3 [bryostatin-1] |  | can inhibit the production of MMP-1, 3, 9, 10 and 11 | does not directly affect the activity of MMPs | induce differentiation and halt the growth of several malignant cell lines
